Common to all, as to type: in vivo
Common to all, as to settings: post-emergence spray at 4-5 leaf stage, 250 g/ha active ingredient with 450 kg/ha water, rated after 3 weeks in greenhouse

One series has as its system crab grass. Briefly: weed control effect in post-emergence stage (Table 1). More on the design: key: Level 10: completely dead; Level 9: above 95% growth control rate; Level 8: above 90% growth control rate; Level 7: above 80% growth control rate; Level 6: above 70% growth control rate; Level 5: above 60% growth control rate; Level 4: above 50% growth control rate; Level 3: above 20% growth control rate; Level 2: 5%-20% growth control rate; Level 1: below 5% growth control rate. How it is done:
(§1) The activity level standard of harmful plant destruction (i.e. growth control rate) is as follows: The above described growth control rate is fresh weight control rate. Monocotyledonous and dicotyledonous weed seeds and main crop seeds (i.e. wheat, corn, rice, soybean, cotton, oilseed, millet and sorghum.) were put into a plastic pot loaded with soil. Then covered with 0.5-2 cm soil, the seeds were allowed to grow in good greenhouse environment. The test plants were treated at 4-5 leaf stage 2-3 weeks after sowing. The test compounds of the invention were dissolved with acetone respectively, then added with 80 tween and diluted by certain amount of water to certain concentration. The solution was sprayed to the plants with a sprayer. Then the plants were cultured for 3 weeks in the greenhouse.

A further series deals with foxtail. Described as above. More on the design: key: Level 10: completely dead; Level 9: above 95% growth control rate; Level 8: above 90% growth control rate; Level 7: above 80% growth control rate; Level 6: above 70% growth control rate; Level 5: above 60% growth control rate; Level 4: above 50% growth control rate; Level 3: above 20% growth control rate; Level 2: 5%-20% growth control rate; Level 1: below 5% growth control rate. How it is done: as §1

For the next series, the system named is Indian mallow. The description is as above. More on the design: key: Level 10: completely dead; Level 9: above 95% growth control rate; Level 8: above 90% growth control rate; Level 7: above 80% growth control rate; Level 6: above 70% growth control rate; Level 5: above 60% growth control rate; Level 4: above 50% growth control rate; Level 3: above 20% growth control rate; Level 2: 5%-20% growth control rate; Level 1: below 5% growth control rate. As to the method: as §1

A further series has as its system echinochloa. The series is described as above. More on the design: key: Level 10: completely dead; Level 9: above 95% growth control rate; Level 8: above 90% growth control rate; Level 7: above 80% growth control rate; Level 6: above 70% growth control rate; Level 5: above 60% growth control rate; Level 4: above 50% growth control rate; Level 3: above 20% growth control rate; Level 2: 5%-20% growth control rate; Level 1: below 5% growth control rate. How it is done: as §1

The next series relates to rorippa indica. The series is described as above. More on the design: key: Level 10: completely dead; Level 9: above 95% growth control rate; Level 8: above 90% growth control rate; Level 7: above 80% growth control rate; Level 6: above 70% growth control rate; Level 5: above 60% growth control rate; Level 4: above 50% growth control rate; Level 3: above 20% growth control rate; Level 2: 5%-20% growth control rate; Level 1: below 5% growth control rate. As to the method: as §1

For another series, the system named is bidens bipinnata. The description is as above. More on the design: key: Level 10: completely dead; Level 9: above 95% growth control rate; Level 8: above 90% growth control rate; Level 7: above 80% growth control rate; Level 6: above 70% growth control rate; Level 5: above 60% growth control rate; Level 4: above 50% growth control rate; Level 3: above 20% growth control rate; Level 2: 5%-20% growth control rate; Level 1: below 5% growth control rate. As to the method:
as §1

The subject of a further series is rice. Briefly: post-emergence stage experiment, crop (Table 1). More on the design: key: Level 10: completely dead; Level 9: above 95% growth control rate; Level 8: above 90% growth control rate; Level 7: above 80% growth control rate; Level 6: above 70% growth control rate; Level 5: above 60% growth control rate; Level 4: above 50% growth control rate; Level 3: above 20% growth control rate; Level 2: 5%-20% growth control rate; Level 1: below 5% growth control rate. How it is done:
as §1

The subject of another series is wheat. Briefly: post-emergence stage experiment, crop (Table 1). How it is done: as §1
Another series has as its system corn. Briefly: post-emergence stage experiment, crop (Table 1). As to the method: as §1

Take `CCc1nn(C)c(O)c1C(=O)c1ccc(C(F)(F)F)c(N2CCCC2=O)c1Cl` [Compound 100]: in the series with crab grass, the “weed control effect, Crab grass (level)” value was 3 (Level 3: above 20% growth control rate). The “weed control effect, Green foxtail (level)” value with foxtail stood at 10. In the series with Indian mallow, the “weed control effect, Indian mallow (level)” value was 9 (Level 9: above 95% growth control rate). Besides, the “weed control effect, Echinochloa (level)” value in the series on echinochloa was found to be 10. Besides, the “weed control effect, Rorippa indica (level)” value with rorippa indica is 10. For the same compound, the “weed control effect, Bidens bipinnata (level)” value with bidens bipinnata is reported as 9 (Level 9: above 95% growth control rate). Besides, the “effect on crop, Rice (level)” value in the series on rice is 10. In the series with wheat, the “effect on crop, Wheat (level)” value is recorded as 2 (Level 2: 5%-20% growth control rate). In addition, in the series with corn, the “effect on crop, Corn (level)” value is reported as 2 (Level 2: 5%-20% growth control rate).
For the compound `Cn1nc(C2CC2)c(C(=O)c2ccc(C(F)(F)F)c(-n3cccn3)c2Cl)c1O` [Compound 073], the “weed control effect, Crab grass (level)” value in the series with crab grass is given as 5 (Level 5: above 60% growth control rate). Moreover, the “weed control effect, Green foxtail (level)” value in the series with foxtail is given as 10. The “weed control effect, Indian mallow (level)” value in the series on Indian mallow was found to be 10. Moreover, the “weed control effect, Echinochloa (level)” value in the series on echinochloa is reported as 5 (Level 5: above 60% growth control rate). Also, in the series on rorippa indica, the “weed control effect, Rorippa indica (level)” value is recorded as 7 (Level 7: above 80% growth control rate). Besides, the “weed control effect, Bidens bipinnata (level)” value with bidens bipinnata is reported as 2 (Level 2: 5%-20% growth control rate). Further, in the series on rice, the “effect on crop, Rice (level)” value is 8 (Level 8: above 90% growth control rate). The “effect on crop, Wheat (level)” value with wheat is 1 (Level 1: below 5% growth control rate). In the series with corn, the “effect on crop, Corn (level)” value is reported as 3 (Level 3: above 20% growth control rate).
For `Cc1nn(C)cc1C(=O)Oc1c(C(=O)c2ccc(C(F)(F)F)c(N3CCCCC3=O)c2Cl)c(C)nn1C` [Compound 038], the “weed control effect, Crab grass (level)” value with crab grass is given as 6 (Level 6: above 70% growth control rate). Further, the “weed control effect, Green foxtail (level)” value in the series with foxtail came to 10. Moreover, in the series on Indian mallow, the “weed control effect, Indian mallow (level)” value is 10. Also, the “weed control effect, Echinochloa (level)” value with echinochloa is 9 (Level 9: above 95% growth control rate). Also, in the series with rorippa indica, the “weed control effect, Rorippa indica (level)” value is reported as 10. For the same compound, in the series with bidens bipinnata, the “weed control effect, Bidens bipinnata (level)” value was 2 (Level 2: 5%-20% growth control rate). Besides, the “effect on crop, Rice (level)” value in the series on rice was 6 (Level 6: above 70% growth control rate). The “effect on crop, Wheat (level)” value in the series on wheat is recorded as 1 (Level 1: below 5% growth control rate). Moreover, the “effect on crop, Corn (level)” value in the series on corn was determined as 0.
On to `Cc1nn(C)c(OC(=O)c2cnn(C)c2)c1C(=O)c1ccc(C(F)(F)F)c(N2CCCCC2=O)c1Cl` [Compound 039], for which the “weed control effect, Crab grass (level)” value with crab grass is 9 (Level 9: above 95% growth control rate). Moreover, the “weed control effect, Green foxtail (level)” value with foxtail came to 10. Further, the “weed control effect, Indian mallow (level)” value in the series on Indian mallow stood at 10. Besides, the “weed control effect, Echinochloa (level)” value in the series with echinochloa is reported as 10. Also, the “weed control effect, Rorippa indica (level)” value in the series on rorippa indica is reported as 10. For the same compound, in the series with bidens bipinnata, the “weed control effect, Bidens bipinnata (level)” value was 2 (Level 2: 5%-20% growth control rate). Also, the “effect on crop, Rice (level)” value with rice is 6 (Level 6: above 70% growth control rate). Also, in the series with corn, the “effect on crop, Corn (level)” value is on record as 2 (Level 2: 5%-20% growth control rate).
`Cc1cnn(-c2c(C(F)(F)F)ccc(C(=O)c3c(C)nn(C)c3OC(=O)c3cnn(C)c3)c2Cl)c1` [Compound 087]: the “weed control effect, Crab grass (level)” value in the series on crab grass is recorded as 9 (Level 9: above 95% growth control rate). The “weed control effect, Green foxtail (level)” value in the series on foxtail is given as 10. Further, the “weed control effect, Indian mallow (level)” value in the series with Indian mallow was found to be 10. For the same compound, the “weed control effect, Echinochloa (level)” value in the series on echinochloa was 6 (Level 6: above 70% growth control rate). Also, the “weed control effect, Bidens bipinnata (level)” value in the series on bidens bipinnata was 5 (Level 5: above 60% growth control rate). Besides, the “effect on crop, Rice (level)” value with rice is on record as 6 (Level 6: above 70% growth control rate). For the same compound, the “effect on crop, Wheat (level)” value with wheat is given as 0. For the same compound, the “effect on crop, Corn (level)” value in the series on corn is reported as 4 (Level 4: above 50% growth control rate).
